Data as given in PubChem BioAssay AID248 (DTP/NCI, 2004).
Where “and” joins values, the source holds several entries; their conditions need not be identical. Equal entries are not always repeated. Inconclusive results and toxic doses are left out. Cut-off read from the data, not from the text of the source: active = T/C of 150% or more; inactive = T/C below 125%.

Test system: L1210 leukemia ip in BDF1 mice, survival T/C
Assay: NCI In Vivo Anticancer Drug Screen. Data for tumor model L1210 Leukemia (intraperitoneal) in B6D2F1 (BDF1) mice
Conditions: endpoint: mean survival time, higher = longer survival
Method in brief: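 Transplantable tumor model; survival measured in treated vs vehicle control mice. Value = treated/control.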

[1] = dose: 100.0 mg/kg/injection, schedule: Q04DX003 (ip), vehicle: Klucel (hydroxypropylcellulose) (HPC)
[2] = dose: 200.0 mg/kg/injection, schedule: Q04DX003 (ip), vehicle: Klucel (hydroxypropylcellulose) (HPC)
[3] = dose: 400.0 mg/kg/injection, schedule: Q04DX003 (ip), vehicle: Klucel (hydroxypropylcellulose) (HPC)
[4] = dose: 100.0 mg/kg/injection, schedule: Q01DX009 (ip), vehicle: saline with Tween-80
[5] = dose: 200.0 mg/kg/injection, schedule: Q01DX009 (ip), vehicle: saline with Tween-80
[6] = dose: 400.0 mg/kg/injection, schedule: Q01DX009 (ip), vehicle: saline with Tween-80
[7] = dose: 100.0 mg/kg/injection, schedule: Q04DX003 (ip), vehicle: saline with Tween-80
[8] = dose: 200.0 mg/kg/injection, schedule: Q04DX003 (ip), vehicle: saline with Tween-80
[9] = dose: 400.0 mg/kg/injection, schedule: Q04DX003 (ip), vehicle: saline with Tween-80
[10] = dose: 100.0 mg/kg/injection, schedule: Q04DX002 (ip), vehicle: saline with Tween-80
[11] = dose: 200.0 mg/kg/injection, schedule: Q04DX002 (ip), vehicle: saline with Tween-80
[12] = dose: 400.0 mg/kg/injection, schedule: Q04DX002 (ip), vehicle: saline with Tween-80
[13] = dose: 100.0 mg/kg/injection, schedule: Q01DX001 (ip), vehicle: Klucel (hydroxypropylcellulose) (HPC)
[14] = dose: 200.0 mg/kg/injection, schedule: Q01DX001 (ip), vehicle: Klucel (hydroxypropylcellulose) (HPC)
[15] = dose: 400.0 mg/kg/injection, schedule: Q01DX001 (ip), vehicle: Klucel (hydroxypropylcellulose) (HPC)
[16] = dose: 100.0 mg/kg/injection, schedule: Q01DX001 (ip), vehicle: saline
[17] = dose: 200.0 mg/kg/injection, schedule: Q01DX001 (ip), vehicle: saline
[18] = dose: 400.0 mg/kg/injection, schedule: Q01DX001 (ip), vehicle: saline
[19] = dose: 100.0 mg/kg/injection, schedule: Q04DX002 (ip), vehicle: Klucel (hydroxypropylcellulose) (HPC)
[20] = dose: 200.0 mg/kg/injection, schedule: Q04DX002 (ip), vehicle: Klucel (hydroxypropylcellulose) (HPC)

Measured: T/C

CC1SCSCS1
inactive: [1] 111 % of control | [2] 88 % of control | [3] 98 % of control

ClC(Cl)(Cl)c1ccc(C2OCCO2)cc1
inactive: dose: 177.0 mg/kg/injection, schedule: Q01DX001 (ip), vehicle: other 98 % of control | dose: 266.0 mg/kg/injection, schedule: Q01DX001 (ip), vehicle: other 110 % of control | dose: 400.0 mg/kg/injection, schedule: Q01DX001 (ip), vehicle: other 94 % of control | dose: 600.0 mg/kg/injection, schedule: Q01DX001 (ip), vehicle: other 111 % of control

Cc1[nH]c2ccc(N(C)C)cc2c(=O)c1Cc1c(C)[nH]c2ccc(N(C)C)cc2c1=O
inactive: [4] 94 % of control | [5] 95 % of control | [6] 92 % of control

Cc1ccc(S(=O)(=O)Nc2ccc(C(=O)O)c(Cl)c2)cc1
inactive: [7] 108 % of control | [8] 92 % of control | [9] 104 % of control

COc1ccc(Cl)cc1NC(=O)Oc1ccccn1
inactive: [4] 89 % of control | [10] 92 % of control and 97 % of control | [7] 95 % of control | dose: 200.0 mg/kg/injection, schedule: Q01DX001 (ip), vehicle: saline with Tween-80 89 % of control | [5] 90 % of control and 91 % of control | [11] 93 % of control and 102 % of control | [8] 101 % of control | dose: 400.0 mg/kg/injection, schedule: Q01DX001 (ip), vehicle: saline with Tween-80 92 % of control | [6] 96 % of control | [12] 95 % of control and 91 % of control | [9] 101 % of control

CCC(=O)OCN1C(=O)C2C3CCC(O3)C2C1=O (stereo unspecified)
inactive: dose: 87.5 mg/kg/injection, schedule: Q01DX009 (ip), vehicle: other 98 % of control | dose: 175.0 mg/kg/injection, schedule: Q01DX009 (ip), vehicle: other 111 % of control

CC1CCCC(CN=Cc2ccccc2O)[N-]1.CC1CCCC(CN=Cc2ccccc2O)[N-]1.[Ni+2] (stereo unspecified)
inactive: [7] 98 % of control

COC(=O)c1cc(=O)c2c(=O)[nH]c(=O)n(C)c2[nH]1
inactive: [1] 94 % of control | [2] 101 % of control | [3] 95 % of control

CC1(C(Cl)Cl)C=CC=CC1=O (stereo unspecified)
inactive: [13] 102 % of control | [14] 106 % of control | [15] 104 % of control

CC(C)(C)/C([O-])=N/[N+](C)(C)Cc1ccccc1
inactive: [16] 97 % of control | [17] 98 % of control | [18] 98 % of control

COC(=O)c1cccc(Nc2ccccc2C(=O)O)c1
inactive: [13] 102 % of control | [14] 96 % of control | [15] 93 % of control

Cc1ncc(-c2ccc([N+](=O)[O-])cc2)o1
inactive: dose: 50.0 mg/kg/injection, schedule: Q04DX003 (ip), vehicle: Klucel (hydroxypropylcellulose) (HPC) 94 % of control | [1] 102 % of control | [2] 94 % of control

CCCCC(CCCC)(C(=O)OCCOCCCl)c1cccc2ccccc12
inactive: [10] 101 % of control | [11] 95 % of control | [12] 99 % of control

CC(=O)CC(=O)NCCCc1ccccc1
inactive: dose: 100.0 mg/kg/injection, schedule: Q01DX009 (sc), vehicle: olive oil, sesame oil, peanut oil 101 % of control | [7] 97 % of control | dose: 200.0 mg/kg/injection, schedule: Q01DX009 (sc), vehicle: olive oil, sesame oil, peanut oil 103 % of control | [8] 103 % of control | dose: 400.0 mg/kg/injection, schedule: Q01DX009 (sc), vehicle: olive oil, sesame oil, peanut oil 106 % of control | [9] 97 % of control

Clc1ccc(C(Cl)c2ccc(Cl)cc2)cc1
inactive: [1] 105 % of control | [2] 107 % of control | [3] 107 % of control

COc1ccc(C(=O)c2c[nH]c3c(OC)ccc(O)c23)cc1
inactive: dose: 6.25 mg/kg/injection, schedule: Q04DX002 (ip), vehicle: saline with Tween-80 95 % of control | dose: 12.5 mg/kg/injection, schedule: Q04DX002 (ip), vehicle: saline with Tween-80 95 % of control | dose: 25.0 mg/kg/injection, schedule: Q04DX002 (ip), vehicle: saline with Tween-80 91 % of control

O=[N+]([O-])c1cc(S(=O)(=O)N2CCCC2)ccc1N1CCCC1
inactive: dose: 100.0 mg/kg/injection, schedule: Q04DX003 (ip), vehicle: saline 100 % of control | dose: 200.0 mg/kg/injection, schedule: Q04DX003 (ip), vehicle: saline 96 % of control | dose: 400.0 mg/kg/injection, schedule: Q04DX003 (ip), vehicle: saline 105 % of control

CCOC(=O)C1(C(=O)OCC)COC(=O)C2(CC)OC21 (stereo unspecified)
inactive: [16] 107 % of control | [17] 98 % of control | [18] 109 % of control

OCC1OC(n2cc(I)c3cncnc32)C(O)C1O (stereo unspecified)
inactive: dose: 12.5 mg/kg/injection, schedule: Q01DX005 (ip), vehicle: saline 102 % of control | dose: 25.0 mg/kg/injection, schedule: Q01DX005 (ip), vehicle: saline 106 % of control | dose: 50.0 mg/kg/injection, schedule: Q01DX005 (ip), vehicle: saline 106 % of control

COc1cc([N+](=O)[O-])ccc1S(=O)(=O)F
inactive: dose: 100.0 mg/kg/injection, schedule: Q01DX009 (ip), vehicle: gum acacia 95 % of control | dose: 200.0 mg/kg/injection, schedule: Q01DX009 (ip), vehicle: gum acacia 98 % of control | dose: 400.0 mg/kg/injection, schedule: Q01DX009 (ip), vehicle: gum acacia 90 % of control

COC1CC(OC(=O)c2ccc([N+](=O)[O-])cc2)C(OC(=O)c2ccc([N+](=O)[O-])cc2)C(C)O1 (stereo unspecified)
inactive: dose: 100.0 mg/kg/injection, schedule: Q01DX001 (ip), vehicle: carboxymethylcellulose (CMC) 93 % of control | dose: 200.0 mg/kg/injection, schedule: Q01DX001 (ip), vehicle: carboxymethylcellulose (CMC) 102 % of control | dose: 400.0 mg/kg/injection, schedule: Q01DX001 (ip), vehicle: carboxymethylcellulose (CMC) 88 % of control

CC12CCC3C4CCC(O)CC4=CCC3C1CCC2=O (stereo unspecified)
inactive: dose: 50.0 mg/kg/injection, schedule: Q01DX001 (ip), vehicle: Klucel (hydroxypropylcellulose) (HPC) 107 % of control | [13] 104 % of control and 107 % of control | [14] 92 % of control | [15] 104 % of control

O=C1CC(c2ccccc2)(c2ccccc2)c2cc(-c3ccccc3)c(-c3ccccc3)cc21
inactive: [19] 106 % of control | [20] 103 % of control | dose: 400.0 mg/kg/injection, schedule: Q04DX002 (ip), vehicle: Klucel (hydroxypropylcellulose) (HPC) 95 % of control

C[N+](C)(C)CCCCCCCCCC[N+](C)(C)C
inactive: dose: 0.39 mg/kg/injection, schedule: Q04DX003 (ip), vehicle: saline with Tween-80 99 % of control | dose: 0.78 mg/kg/injection, schedule: Q04DX003 (ip), vehicle: saline with Tween-80 95 % of control | dose: 1.56 mg/kg/injection, schedule: Q04DX003 (ip), vehicle: saline with Tween-80 92 % of control

CCSc1ncnc2nc(C)[nH]c12
inactive: [16] 100 % of control | [17] 101 % of control

CCCCOP(=O)(OCCCC)OC(C#N)CCC (stereo unspecified)
inactive: [19] 107 % of control | [20] 98 % of control
